From patent US20250276007A1, “CARBAMOYLPHENYLBORONIC ACID-CONTAINING ACRYLIC MONOMERS AND USES THEREOF” (Alcon Inc., priority 2024, published 2025)
Like-named read-outs stand apart in the source and are kept apart here.

Experiment: pKa of boronic acid monomer
Format: physicochemical
Conditions: monomer forming the repeating units of the copolymer

SMILES | pKa (read-out: pKa) | pKa
C=CC(=O)Nc1cccc(B(O)O)c1 [APBA, 3-(acrylamido)phenylboronic acid] | ~8.1 | –
C=CC(=O)NCCNC(=O)c1ccc(B(O)O)cc1Cl [CPBA] | – | about 7.2
